Columns and labels:
[1] = molecular target: T1, S5AR enzyme derived from LNCaP cells (Homo sapiens, UniProt P18405); assay: S5AR inhibition assay (DHT production quantified by LC-MS); type: biochemical; conditions: read-out: S5AR percentage inhibition
T1 sequence (P18405 1-259): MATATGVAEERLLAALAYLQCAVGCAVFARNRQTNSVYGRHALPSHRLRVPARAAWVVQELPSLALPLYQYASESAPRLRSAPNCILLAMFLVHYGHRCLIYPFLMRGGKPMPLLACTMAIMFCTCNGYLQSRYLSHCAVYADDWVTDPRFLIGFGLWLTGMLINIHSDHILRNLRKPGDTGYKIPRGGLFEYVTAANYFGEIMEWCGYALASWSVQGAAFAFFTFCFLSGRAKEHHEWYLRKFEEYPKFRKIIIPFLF

[2] = molecular target: T1, S5AR enzyme derived from LNCaP cells; conditions: taken from previous publication; read-out: S5AR Inhibitory Activity (IC50); cited from earlier work

Molecule `COc1cc(/C=C/C(=O)CC(=O)/C=C/c2ccc(O)c(OC)c2)ccc1O` [Curcumin] has an inhibition at 50 µg/mL [1] of 92.73 ± 0.14%.
With `CC1=C(CC[C@@H](C)CC(=O)O)[C@@]2(C)CCCC(C)(C)C2CC1=O` (stereo partly drawn) [Compound 2, 7-Oxo-8-labden-15-oic acid] the inhibition at 300 µM ([1]; final concentration of 300 µM) was 41.4%.
For `CC(C)(C)NC(=O)[C@H]1CC[C@H]2[C@@H]3CC[C@H]4NC(=O)C=C[C@]4(C)[C@H]3CC[C@]12C` [Finasteride], the IC50 [2] is given as 760 ± 30 nM.

Source: publication PMC12300835, “Geographic Influence and Metabolomics-Driven Discovery of 5-Alpha Reductase Inhibitors in Tectona grandis L.f. (Teak) Leaves” (Molecules, 2025)
